In patent publication US20240018145A1, “[…]-DEPENDENT EN[…] TREATING OR […]” (priority 2020, published 2024):

system: FLU A (PR/8/34); assay: Flu A Neuraminidase Antiviral Assay; type: cell-based

SMILES | EC50
Cc1ccccc1C1N2C(CCC13CCC(F)(F)CC3)N(C)C(=O)c1c(O)c(=O)ccn12 (single isomer, unassigned) [Compound 70A, 4,4-difluoro-7′-hydroxy-5′-methyl-1′-(o-tolyl)-3′,4′,4a′,5′-tetrahydro-1′H-spiro[cyclohexane-1,2′dipyrido[1,2-b:2′,1′-f][1,2,4]triazine]-6′,8′-dione] | 299 nM
Cc1ccccc1C1N2C(CCC13CCC(F)(F)CC3)N(C)C(=O)c1c(O)c(=O)ccn12 (single isomer, unassigned) [Compound 70B, 4,4-difluoro-7′-hydroxy-5′-methyl-1′-(o-tolyl)-3′,4′,4a′,5′-tetrahydro-1′H-spiro[cyclohexane-1,2′dipyrido[1,2-b:2′,1′-f][1,2,4]triazine]-6′,8′-dione] | 2 nM
CN1C(=O)c2c(O)c(=O)ccn2N2C1CCC(C)(CC(F)(F)F)C2c1ccccc1 (single isomer, unassigned) [Compound 71A, 7-hydroxy-2,5-dimethyl-1-phenyl-2-(2,2,2-trifluoroethyl)-1,2,3,4,4a,5-hexahydrodipyrido[1,2-b:2′,1′-f][1,2,4]triazine-6,8-dione] | 5910 nM
CN1C(=O)c2c(O)c(=O)ccn2N2C1CCC(C)(CC(F)(F)F)C2c1ccccc1 (single isomer, unassigned) [Compound 71B, 7-hydroxy-2,5-dimethyl-1-phenyl-2-(2,2,2-trifluoroethyl)-1,2,3,4,4a,5-hexahydrodipyrido[1,2-b:2′,1′-f][1,2,4]triazine-6,8-dione] | 18.5 nM
CN1C(=O)c2c(O)c(=O)ccn2N2C1CCC1(CCC(F)(F)CC1)C2c1ccccc1 (single isomer, unassigned) [Compound 72A, 4,4-difluoro-7′-hydroxy-5′-methyl-1′-phenyl-3′,4′,4a′,5′-tetrahydro-1′H-spiro[cyclohexane-1,2′-dipyrido[1,2-b:2′,1′-f][1,2,4]triazine]-6′,8′-dione] | > 810 nM
CN1C(=O)c2c(O)c(=O)ccn2N2C1CCC1(CCC(F)(F)CC1)C2c1ccccc1 (single isomer, unassigned) [Compound 72B, 4,4-difluoro-7′-hydroxy-5′-methyl-1′-phenyl-3′,4′,4a′,5′-tetrahydro-1′H-spiro[cyclohexane-1,2′-dipyrido[1,2-b:2′,1′-f][1,2,4]triazine]-6′,8′-dione] | 3.8 nM
CN1C(=O)c2c(O)c(=O)ccn2N2C1CCC1(CCC(C(F)(F)F)CC1)C2c1ccccc1 (single isomer, unassigned) [Compound 73A, 7′-hydroxy-5′-methyl-1′-phenyl-4-(trifluoromethyl)-3′,4′,4a′,5′-tetrahydro-1′H-spiro[cyclohexane-1,2′-dipyrido[1,2-b:2′,1′-f][1,2,4]triazine]-6′,8′-dione] | > 810 nM
CN1C(=O)c2c(O)c(=O)ccn2N2C1CCC1(CCC(C(F)(F)F)CC1)C2c1ccccc1 (single isomer, unassigned) [Compound 73B, 7′-hydroxy-5′-methyl-1′-phenyl-4-(trifluoromethyl)-3′,4′,4a′,5′-tetrahydro-1′H-spiro[cyclohexane-1,2′-dipyrido[1,2-b:2′,1′-f][1,2,4]triazine]-6′,8′-dione] | > 810 nM
CN1C(=O)c2c(O)c(=O)ccn2N2C1CCC1(CCC(C(F)(F)F)CC1)C2c1ccccc1 (single isomer, unassigned) [Compound 73C, 7′-hydroxy-5′-methyl-1′-phenyl-4-(trifluoromethyl)-3′,4′,4a′,5′-tetrahydro-1′H-spiro[cyclohexane-1,2′-dipyrido[1,2-b:2′,1′-f][1,2,4]triazine]-6′,8′-dione] | 105 nM
CN1C(=O)c2c(O)c(=O)ccn2N2C1CCC1(CCC(C(F)(F)F)CC1)C2c1ccccc1 (single isomer, unassigned) [Compound 73D, 7′-hydroxy-5′-methyl-1′-phenyl-4-(trifluoromethyl)-3′,4′,4a′,5′-tetrahydro-1′H-spiro[cyclohexane-1,2′-dipyrido[1,2-b:2′,1′-f][1,2,4]triazine]-6′,8′-dione] | 6.6 nM
CN1C(=O)c2c(O)c(=O)ccn2N2C1CCC1(CC(F)(F)C1)C2c1ccccc1 (single isomer, unassigned) [Compound 74A, 3,3-difluoro-7′-hydroxy-5′-methyl-1′-phenyl-3′,4′,4a′,5′-tetrahydro-1′H-spiro[cyclobutane-1,2′-dipyrido[1,2-b:2′,1′-f][1,2,4]triazine]-6′,8′-dione] | > 810 nM
CN1C(=O)c2c(O)c(=O)ccn2N2C1CCC1(CC(F)(F)C1)C2c1ccccc1 (single isomer, unassigned) [Compound 74B, 3,3-difluoro-7′-hydroxy-5′-methyl-1′-phenyl-3′,4′,4a′,5′-tetrahydro-1′H-spiro[cyclobutane-1,2′-dipyrido[1,2-b:2′,1′-f][1,2,4]triazine]-6′,8′-dione] | 15.7 nM
CN1C(=O)c2c(O)c(=O)ccn2N2C1CCC1(CC(F)(F)C1)C2c1ccccc1 (single isomer, unassigned) [Compound 74C, 3,3-difluoro-7′-hydroxy-5′-methyl-1′-phenyl-3′,4′,4a′,5′-tetrahydro-1′H-spiro[cyclobutane-1,2′-dipyrido[1,2-b:2′,1′-f][1,2,4]triazine]-6′,8′-dione] | 32.5 nM
CN1C(=O)c2c(O)c(=O)ccn2N2C1CCC1(CC(F)(F)C1)C2c1ccccc1 (single isomer, unassigned) [Compound 74D, 3,3-difluoro-7′-hydroxy-5′-methyl-1′-phenyl-3′,4′,4a′,5′-tetrahydro-1′H-spiro[cyclobutane-1,2′-dipyrido[1,2-b:2′,1′-f][1,2,4]triazine]-6′,8′-dione] | 442 nM
CN1C(=O)c2c(O)c(=O)ccn2N2C1CCC1(CCCC(F)(F)C1)C2c1ccccc1 (single isomer, unassigned) [Compound 75A, 3,3-difluoro-7′-hydroxy-5′-methyl-1′-phenyl-3′,4′,4a′,5′-tetrahydro-1′H-spiro[cyclohexane-1,2′-dipyrido[1,2-b:2′,1′-f][1,2,4]triazine]-6′,8′-dione] | > 810 nM
CN1C(=O)c2c(O)c(=O)ccn2N2C1CCC1(CCCC(F)(F)C1)C2c1ccccc1 (single isomer, unassigned) [Compound 75B, 3,3-difluoro-7′-hydroxy-5′-methyl-1′-phenyl-3′,4′,4a′,5′-tetrahydro-1′H-spiro[cyclohexane-1,2′-dipyrido[1,2-b:2′,1′-f][1,2,4]triazine]-6′,8′-dione] | 8 nM
CN1C(=O)c2c(O)c(=O)ccn2N2C1CCC1(CCCC(F)(F)C1)C2c1ccccc1 (single isomer, unassigned) [Compound 75C, 3,3-difluoro-7′-hydroxy-5′-methyl-1′-phenyl-3′,4′,4a′,5′-tetrahydro-1′H-spiro[cyclohexane-1,2′-dipyrido[1,2-b:2′,1′-f][1,2,4]triazine]-6′,8′-dione] | 140 nM
CN1C(=O)c2c(O)c(=O)ccn2N2C1CCC1(CCCC(F)(F)C1)C2c1ccccc1 (single isomer, unassigned) [Compound 75D, 3,3-difluoro-7′-hydroxy-5′-methyl-1′-phenyl-3′,4′,4a′,5′-tetrahydro-1′H-spiro[cyclohexane-1,2′-dipyrido[1,2-b:2′,1′-f][1,2,4]triazine]-6′,8′-dione] | 19.2 nM
CCN1C(=O)c2c(O)c(=O)ccn2N2C1CCC1(CCC(F)(F)CC1)C2c1ccccc1 (single isomer, unassigned) [Compound 76A] | > 810 nM
CCN1C(=O)c2c(O)c(=O)ccn2N2C1CCC1(CCC(F)(F)CC1)C2c1ccccc1 (single isomer, unassigned) [Compound 76B] | 2 nM
Cc1cccc(F)c1C1C(CC(F)(F)F)CCC2N(C)C(=O)c3c(O)c(=O)ccn3N12 (single isomer, unassigned) [Compound 77A, 1-(2-fluoro-6-methylphenyl)-7-hydroxy-5-methyl-2-(2,2,2-trifluoroethyl)-1,2,3,4,4a,5-hexahydrodipyrido[1,2-b:2′,1′-f][1,2,4]triazine-6,8-dione] | 3.3 nM
Cc1cccc(F)c1C1C(CC(F)(F)F)CCC2N(C)C(=O)c3c(O)c(=O)ccn3N12 (single isomer, unassigned) [Compound 77B, 1-(2-fluoro-6-methylphenyl)-7-hydroxy-5-methyl-2-(2,2,2-trifluoroethyl)-1,2,3,4,4a,5-hexahydrodipyrido[1,2-b:2′,1′-f][1,2,4]triazine-6,8-dione] | 3.2 nM
Cc1cccc(F)c1C1C(CC(F)(F)F)CCC2N(C)C(=O)c3c(O)c(=O)ccn3N12 (single isomer, unassigned) [Compound 77C, 1-(2-fluoro-6-methylphenyl)-7-hydroxy-5-methyl-2-(2,2,2-trifluoroethyl)-1,2,3,4,4a,5-hexahydrodipyrido[1,2-b:2′,1′-f][1,2,4]triazine-6,8-dione] | > 810 nM
Cc1cccc(F)c1C1C(CC(F)(F)F)CCC2N(C)C(=O)c3c(O)c(=O)ccn3N12 (single isomer, unassigned) [Compound 77D, 1-(2-fluoro-6-methylphenyl)-7-hydroxy-5-methyl-2-(2,2,2-trifluoroethyl)-1,2,3,4,4a,5-hexahydrodipyrido[1,2-b:2′,1′-f][1,2,4]triazine-6,8-dione] | 1.9 nM
CN1C(=O)c2c(O)c(=O)ccn2N2C(c3ccccc3)C(CCC(F)(F)F)CCC12C (single isomer, unassigned) [Compound 78A, 7-hydroxy-4a,5-dimethyl-1-phenyl-2-(3,3,3-trifluoropropyl)-1,2,3,4,4a,5-hexahydrodipyrido[1,2-b:2′,1′-f][1,2,4]triazine-6,8-dione] | > 810 nM
CN1C(=O)c2c(O)c(=O)ccn2N2C(c3ccccc3)C(CCC(F)(F)F)CCC12C (single isomer, unassigned) [Compound 78B, 7-hydroxy-4a,5-dimethyl-1-phenyl-2-(3,3,3-trifluoropropyl)-1,2,3,4,4a,5-hexahydrodipyrido[1,2-b:2′,1′-f][1,2,4]triazine-6,8-dione] | 2.9 nM
Cc1ccccc1C1C(CC(F)(F)F)CC(C)C2N(C)C(=O)c3c(O)c(=O)ccn3N12 (single isomer, unassigned) [Compound 79A, 7-hydroxy-4,5-dimethyl-1-(o-tolyl)-2-(2,2,2-trifluoroethyl)-1,2,3,4,4a,5-hexahydrodipyrido[1,2-b:2′,1′-f][1,2,4]triazine-6,8-dione] | 83.8 nM
